Where “and” joins values, the source holds several entries; their conditions need not be identical. Identical values can stand only once. Like-named read-outs stand apart in the source and are kept apart here.
Columns and labels:
MDA-MB231 = assay: Cell survival assay, MDA-MB231; assay type: cell-based; settings: Homo sapiens, MDA-MB-231; 48 h exposure, nuclei count; read-out: Cell Lines IC50 MDA-MB231
Experimental: (§1) Skin diploid fibroblastic cells were provided by BIOPREDIC International Company (Rennes, France). […] Cells were grown according to ECACC recommendations. The toxicity test of the compounds on these cells was as follows: 2 × 10^3 cells for HCT-116 cells or 4 × 10^3 for the other cells were seeded in 96-multi-well plates in triplicate and left for 24 h for attachment, spreading and growing. Then, cells were exposed for 48 h to increasing concentrations of the compounds, ranging from […], in a final volume of 120 μL of culture medium. […] The IC50 were graphically determined.

HCT116 = assay: Cell survival assay, HCT116; assay type: cell-based; settings: Homo sapiens, HCT-116; 48 h exposure, nuclei count; read-out: Cell Lines IC50 HCT116
Experimental: as §1

Huh7 D12 = assay: Cell survival assay, Huh7 D12; assay type: cell-based; settings: Huh-7D12; 48 h exposure, nuclei count; read-out: Cell Lines IC50 Huh7 D12
Experimental: as §1

DYRK1A [1] = molecular target: T1, DYRK1A (Rattus norvegicus, UniProt Q63470); assay: DYRK1A kinase assay; assay type: biochemical; settings: Table 4; 15 μM ATP
T1 construct: GST; made in house; host or cells: Escherichia coli
Experimental: (§2) The twenty-two (5Z) 5-arylidene-2-thioxo-1,3-thiazolidin-4-ones 3a–v and the twenty-four (5Z) 2-amino-5-arylidene-1,3-thiazolidin-4(5H)-ones 5a–x were evaluated against four different and representative in vitro kinase assays DYRK1A (dual specificity tyrosine phosphorylation regulated kinase), CK1 δ/e (caseine kinase 1), CDK5/p25 (cyclin dependant kinase), and GSK3 α/β (glycogen synthase kinase 3) to evaluate their inhibition potency. […] All the compounds were initially tested at a 10 μM concentration.
After 30-min incubation at 30 °C, the reaction was stopped by harvesting, using a FilterMate harvester (Packard), onto P81 phospho-cellulose papers (GE Healthcare, Chicago, IL, USA) which were washed in 1% phosphoric acid. Scintillation fluid was added and the radioactivity measured in a Packard counter. Blank values were subtracted and activities calculated as pmoles of phosphate incorporated for the 30-min incubation. The activities were expressed in % of the maximal activity, i.e., in the absence of inhibitors. Controls were performed with appropriate dilutions of DMSO. […]

PC3 = assay: Cell survival assay, PC3; assay type: cell-based; settings: Homo sapiens, PC-3; 48 h exposure, nuclei count; read-out: Cell Lines IC50 PC3
Experimental: as §1

Casein kinase 1 (CK1δ/ε) [2] = assay: CK1δ/ε kinase assay; assay type: biochemical, porcine; settings: Table 4; 15 μM ATP; read-out: IC50 CK1
Experimental: as §2
(§3) After 30-min incubation at 30 °C, the reaction was stopped by harvesting, using a FilterMate harvester (Packard), onto P81 phospho-cellulose papers (GE Healthcare, Chicago, IL, USA) which were washed in 1% phosphoric acid. Scintillation fluid was added and the radioactivity measured in a Packard counter. Blank values were subtracted and activities calculated as pmoles of phosphate incorporated for the 30-min incubation. The activities were expressed in % of the maximal activity, i.e., in the absence of inhibitors. Controls were performed with appropriate dilutions of DMSO.
Casein kinase 1 (CK1δ/ε) (porcine brain, native) was assayed with 0.67 µg of CKS peptide ([…]pSAYSITA), a CK1 specific substrate obtained from Millegen (Labege, France).

GSK-3α/β [3] = assay: GSK-3α/β kinase assay; assay type: biochemical, porcine; settings: Table 4; 15 μM ATP; read-out: IC50 GSK3α/β
Experimental: as §2, §3
GSK-3α/β (porcine brain, native) was assayed, as described for CDK5/p25 but in Buffer A and using a GSK-3 specific substrate (GS-1: […]pEDEEE) (pS stands for phosphorylated serine). GS-1 was synthesized by Millegen (Labege, France).

Caco2 = assay: Cell survival assay, Caco2; assay type: cell-based; settings: Homo sapiens, Caco-2; 48 h exposure, nuclei count; read-out: Cell Lines IC50 Caco2
Experimental: as §1

CDK5/p25 = molecular target: T2, CDK5/p25 (Homo sapiens, UniProt Q00535); assay: CDK5/p25 kinase assay; assay type: biochemical; settings: Table 4; 15 μM ATP
T2 construct: made in house
T2 sequence (Q00535 whole entry): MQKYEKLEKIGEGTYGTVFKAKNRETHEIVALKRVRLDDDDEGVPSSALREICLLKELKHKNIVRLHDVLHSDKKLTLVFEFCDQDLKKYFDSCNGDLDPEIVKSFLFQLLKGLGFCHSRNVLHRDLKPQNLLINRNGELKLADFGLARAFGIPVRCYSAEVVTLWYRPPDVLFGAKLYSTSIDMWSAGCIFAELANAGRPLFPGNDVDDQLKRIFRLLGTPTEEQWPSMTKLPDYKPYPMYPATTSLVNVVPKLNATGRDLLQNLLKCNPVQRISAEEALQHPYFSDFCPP
T2 sequence (Q15078 99-307 partner limits assumed): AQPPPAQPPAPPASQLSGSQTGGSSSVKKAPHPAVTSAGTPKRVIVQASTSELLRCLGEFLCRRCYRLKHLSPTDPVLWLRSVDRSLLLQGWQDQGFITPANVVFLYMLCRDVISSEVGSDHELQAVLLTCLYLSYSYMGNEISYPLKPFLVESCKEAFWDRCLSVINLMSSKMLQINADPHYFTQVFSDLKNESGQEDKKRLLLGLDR
Experimental: as §2, §3
CDK5/p25 (human, recombinant) was prepared as previously described. […] ATP (3000 Ci/mmol; 10 mCi/mL) in a final volume of 30 μL. After 30-min incubation at 30 °C, 25 μL aliquots of supernatant were spotted onto 2.5 × 3 cm pieces of Whatman P81 phospho-cellulose paper, and, 20 s later, the filters were washed five times (for at least 5 min each time) in a solution of 10 mL phosphoric acid/litter of water. The wet filters were counted in the presence of 1 mL ACS (Amersham, UK) scintillation fluid.

Fibroblasts = assay: Cell survival assay, normal skin diploid fibroblasts; assay type: cell-based; settings: Fibroblast; normal cells, 48 h exposure, nuclei count; read-out: Cell Lines IC50 Fibroblasts
Experimental: as §1

NCI-H727 = assay: Cell survival assay, NCI-H727; assay type: cell-based; settings: Homo sapiens, 48 h exposure, nuclei count, read-out: Cell Lines IC50 NCI-H727
Experimental: as §1

GSK-3α/β [4] = settings: read-out: IC50 GSK3α/β, positive control, cited from earlier work
DYRK1A [5] = settings: reported; cited from earlier work
Casein kinase 1 (CK1δ/ε) [6] = settings: read-out: IC50 CK1, positive control, cited from earlier work
[7] = Table 5, same values as Table 4

Row | IC50 (DYRK1A [1]) | melting point | IC50 (Casein kinase 1 (CK1δ/ε) [2]) | IC50 (GSK-3α/β [3]) | IC50 (CDK5/p25) | SMILES | IC50 (MDA-MB231) | IC50 (HCT116) | IC50 (Huh7 D12) | IC50 (PC3) | IC50 (Caco2) | IC50 (Fibroblasts) | IC50 (NCI-H727) | IC50 (GSK-3α/β [4]; Table 4) | IC50 (GSK-3α/β [4]; [7]) | IC50 (DYRK1A [5]) | IC50 (Casein kinase 1 (CK1δ/ε) [6]; Table 4) | IC50 (Casein kinase 1 (CK1δ/ε) [6]; [7])
1 | 0.056 µM | 250 to 252 °C | > 10 µM | ≤ 10 µM | > 10 µM | O=C1NC(=S)S/C1=C\c1ccc2c(c1)OCCO2 [Compound 3f, (5Z)-5-(2,3-Dihydro-1,4-benzodioxin-6-ylmethylene)-2-thioxo-1,3-thiazolidin-4-one] | > 25 µM | > 25 µM | > 25 µM | > 25 µM | > 25 µM | > 25 µM | > 25 µM | – | – | – | – | –
2 | – | – | – | – | – | COc1ccc2c(c1)[nH]c1c(C)nccc12 [Harmine] | – | – | – | – | – | – | – | > 10 µM | > 10 µM | […] | 1.5 µM | 1.5 µM
